From PubChem BioAssay AID651709 (Sanford-Burnham Center for Chemical Genomics, 2012)

Biological target: Probable nicotinate-nucleotide adenylyltransferase (Staphylococcus aureus (strain N315)) (UniProt P65502)
Experiment: inhibitors of S. aureus NadD, dose response, biochemical, colorimetric, set 2 (AID 651709)
Details: purified S. aureus NadD, colorimetric enzyme assay

- IC50: 50 µM
SMILES: C[c-]1[c-](C)[c-](C)[c-](C)[c-]1C.[Fe].c1cc2nccc(N3CCCC3)[c-]2c1 (stereo unspecified)
